Laboratory results taken from the NIST ThermoML archive (doi:10.1021/je700100a).
± gives the expanded uncertainty stated by the source.

Experiment: mn = molality of the nth substance listed, in mol/kg
Settings: 101 kPa, Liquid, Buoyancy - hydrostatic balance with magnetic suspension - one sinker

mass density (298.15 K, m1 = 0.0306): 998.491 ± 0.41 kg/m3 | mass density (303.15 K, m1 = 0.0105): 996.131 ± 0.41 kg/m3 | mass density (303.15 K, m1 = 0.02061): 996.605 ± 0.41 kg/m3
SMILES: [Cl-].[K+] [potassium chloride] + O
